Earlier results on one compound are cited in patent publication US11142559B2, “Glucagon derivative, conjugate thereof, composition comprising same, and therapeutic use thereof” (HANMI PHARM. CO., LTD, priority 2016, dated 2021).

Molecules are shown by their SMILES.

The conditions of the data set: when taken for one year, according to a report.

Regarding `CCCCCCCCCCC[C@@H](C[C@@H]1OC(=O)[C@H]1CCCCCC)OC(=O)[C@H](CC(C)C)NC=O` [Orlistat], the weight loss entry is “about 4 kg”.
